Tests used:
[1] = molecular target: T1, Recombinant IKKα (Homo sapiens, UniProt O15111); assay: DELFIA IKKα kinase assay (apparent Ki, Cheng-Prusoff); type: biochemical; settings: non-italicised figure: DELFIA assay
T1 construct: purchased Millipore, Dundee, UK
T1 sequence (O15111 1-745): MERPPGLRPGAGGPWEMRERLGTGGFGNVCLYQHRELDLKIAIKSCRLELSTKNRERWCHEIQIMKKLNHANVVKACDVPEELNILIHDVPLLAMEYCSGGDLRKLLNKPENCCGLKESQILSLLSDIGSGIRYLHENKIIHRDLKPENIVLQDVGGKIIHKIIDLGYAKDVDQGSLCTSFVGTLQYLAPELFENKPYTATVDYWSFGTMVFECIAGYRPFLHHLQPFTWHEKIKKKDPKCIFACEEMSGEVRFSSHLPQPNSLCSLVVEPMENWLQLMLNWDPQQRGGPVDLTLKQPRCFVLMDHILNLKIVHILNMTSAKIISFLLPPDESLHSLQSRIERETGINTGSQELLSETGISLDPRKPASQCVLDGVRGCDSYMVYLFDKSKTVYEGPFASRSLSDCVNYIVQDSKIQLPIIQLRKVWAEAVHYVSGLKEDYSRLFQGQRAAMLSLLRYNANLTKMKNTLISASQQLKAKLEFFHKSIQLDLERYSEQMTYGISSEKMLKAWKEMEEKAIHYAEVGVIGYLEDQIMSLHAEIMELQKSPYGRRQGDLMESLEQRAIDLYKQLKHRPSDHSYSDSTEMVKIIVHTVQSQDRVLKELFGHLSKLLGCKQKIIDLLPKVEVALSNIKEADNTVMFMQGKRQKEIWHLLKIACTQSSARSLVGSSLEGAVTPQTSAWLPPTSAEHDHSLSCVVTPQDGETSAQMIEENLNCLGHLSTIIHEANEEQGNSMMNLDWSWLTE
Protocol: (§1) IKKα and IKKβ inhibitory activity was determined using three different assays: a dissociation enhanced ligand fluorescent immunoassay (DELFIA) based on the protocol of HTScan™ IKKβ Kinase Assay (Cell Signaling Technology, USA); an Adapta IKKα assay (performed by Life Technologies); a Z′-LYTE™ IKKβ assay (performed by Life Technologies).
(§2) Recombinant IKKα or IKKβ, 37 nM, (Millipore, Dundee, UK) was incubated with IηB-α (Ser32) (New England Biolabs, Hitchin, UK) biotinylated peptide substrate (0.375 μM) and 40 μM ATP in assay buffer (40 mM Tris-HCl (pH 7.5), 20 mM MgCl2, EDTA 1 mM, DTT 2 mM and BSA 0.01 mg/ml) in a V-well 96-well plate in the presence and absence of test compound. The assay plate was incubated for 60 minutes at 30° C. after which the kinase reaction was quenched by the addition of 50 mM EDTA, pH8. The resulting mixture was transferred to a streptavidin coated 96-well plate (Perkin Elmer, Beaconsfield, UK) and incubated for 1 hour at 30° C. to immobilise the substrate peptide. After three washes with wash buffer (0.01 M phosphate buffered saline (PBS), 0.05% Tween −20, pH 7.4) a primary antibody against the phosphorylated substrate (phospho-IηB-a) (Ser32/36) (5A5) Mouse mAb (New England Biolabs, Hitchin, UK) (1:1000 dilution with 1% bovine serum albumin (BSA) in wash buffer) was added and incubated at 37° C. for 2 h.
(§3) After a further three washes, a secondary europiated antibody (Eu-N1 labelled anti-mouse IgG, (Perkin Elmer, Beaconsfield, UK) diluted 1:500 in 1% BSA/wash buffer) was added and incubated at 30° C. for 30 minutes. After a further five washes, DELFIA enhancement solution—(Perkin Elmer, Beaconsfield UK) was added and allowed to incubate for 10 min at room temperature, protected from light, to facilitate the chemifluorescent detection. The relative fluorescence units (RFU) signal were measured on a Wallac Victor 1420 multilabel counter (Perkin Elmer, Beaconsfield, UK), in time-resolved fluorescence mode. The counter was set at an excitation wavelength of 340 nm with a 400 μs delay before detecting emitted light at 615 nm. The apparent Ki of the […] was calculated for each compound using the Cheng-Prusoff Equation.
(§4) The IKKα and IKKβ figures quoted in non-italicised form are from the DELFIA assay described above.

[2] = molecular target: T2, Recombinant IKKβ (Homo sapiens, UniProt O14920); assay: DELFIA IKKβ kinase assay (apparent Ki, Cheng-Prusoff); type: biochemical; settings: non-italicised figure: DELFIA assay
T2 construct: purchased Millipore, Dundee, UK
T2 sequence (O14920 1-756): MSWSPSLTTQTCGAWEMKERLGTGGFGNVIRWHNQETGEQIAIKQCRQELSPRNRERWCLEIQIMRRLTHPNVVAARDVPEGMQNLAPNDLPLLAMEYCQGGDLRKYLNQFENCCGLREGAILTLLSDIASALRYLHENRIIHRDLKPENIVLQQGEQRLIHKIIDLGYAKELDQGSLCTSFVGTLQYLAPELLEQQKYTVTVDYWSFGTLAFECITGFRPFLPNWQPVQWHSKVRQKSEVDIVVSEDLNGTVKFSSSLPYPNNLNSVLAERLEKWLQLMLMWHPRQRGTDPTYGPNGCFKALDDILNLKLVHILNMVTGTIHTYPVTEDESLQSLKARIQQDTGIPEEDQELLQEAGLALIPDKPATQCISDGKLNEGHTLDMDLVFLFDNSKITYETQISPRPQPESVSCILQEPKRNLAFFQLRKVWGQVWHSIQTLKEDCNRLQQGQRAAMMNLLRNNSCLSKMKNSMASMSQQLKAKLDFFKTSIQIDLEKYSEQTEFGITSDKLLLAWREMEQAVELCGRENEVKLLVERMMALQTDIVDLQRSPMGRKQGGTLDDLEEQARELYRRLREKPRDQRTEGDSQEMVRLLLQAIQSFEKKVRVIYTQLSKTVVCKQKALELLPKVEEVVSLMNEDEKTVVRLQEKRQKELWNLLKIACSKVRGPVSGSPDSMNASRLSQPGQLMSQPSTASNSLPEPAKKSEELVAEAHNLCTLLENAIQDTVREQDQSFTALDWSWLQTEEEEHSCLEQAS
Protocol: as §1, §2, §3, §4

| Structure (SMILES) | Ki [1] [nM] | Ki [2] [nM] |
| --- | --- | --- |
| CCCCCCNc1cc(-c2ccc3[nH]nc(N)c3c2)ccn1 [Example 17, 5-(2-(Hexylamino)pyridine-4-yl)-1H-indazol-3-amine] | 114 | 1340 |
| Nc1n[nH]c2ccc(-c3ccnc(NC4CCCCC4)c3)cc12 [Example 18, 5-(2-(Cyclohexylamino)pyridine-4-yl)-1H-indazol-3-amine] | 571 | > 10000 |
| C[C@H]1CC[C@H](Nc2cc(-c3ccc4[nH]nc(N)c4c3)ccn2)CC1 [Example 19, 5-{2-[(Trans-4-methylcyclohexyl)amino]pyridin-4-yl}-1H-indazol-3-amine] | 170 | > 10000 |
| Nc1n[nH]c2ccc(-c3ccnc(NCCO)c3)cc12 [Example 20, 2-((4-(3-Amino-1H-indazol-5-yl)pyridine-2-yl)amino)ethan-1-ol] | 46 | 630 |
| Nc1n[nH]c2ccc(-c3ccnc(NCCCO)c3)cc12 [Example 21, 3-((4-(3-Amino-1H-indazol-5-yl)pyridine-2-yl)amino)propan-1-ol] | 15 | 796 |
| Nc1n[nH]c2ccc(-c3ccnc(NCCCCO)c3)cc12 [Example 22, 4-(4-(3-Amino-1H-indazol-5-yl)pyridin-2-ylamino)butan-1-ol] | 22 | 1470 |
| Nc1n[nH]c2ccc(-c3ccnc(NCCCCCO)c3)cc12 [Example 23] | 33 | 335 |
| Nc1n[nH]c2ccc(-c3ccnc(N[C@H]4CC[C@H](O)CC4)c3)cc12 [Example 24, 5-{2-[(Trans-4-hydroxycyclohexyl)amino]pyridin-4-yl}-1H-indazol-3-amine] | 100 | > 10000 |
| COCCNc1cc(-c2ccc3[nH]nc(N)c3c2)ccn1 [Example 25, 5-(2-((2-Methoxyethyl)amino)pyridine-4-yl)-1H-indazol-3-amine] | 221 | > 10000 |
| COCCCNc1cc(-c2ccc3[nH]nc(N)c3c2)ccn1 [Example 26, 5-(2-((3-Methoxypropyl)amino)pyridine-4-yl)-1H-indazol-3-amine] | 34 | 754 |
| CC(C)OCCCNc1cc(-c2ccc3[nH]nc(N)c3c2)ccn1 [Example 27, 5-(2-((3-Isopropoxypropyl)amino)pyridin-4-yl)-1H-indazol-3-amine] | 76 | 2510 |
| Nc1n[nH]c2ccc(-c3ccnc(NCCCO)n3)cc12 [Example 28, 3-((4-(3-Amino-1H-indazol-5-yl)pyrimidin-2-yl)amino)propan-1-ol] | 65 | 460 |
| CN(CCCO)c1cc(-c2ccc3[nH]nc(N)c3c2)ccn1 [Example 29, 3-((4-(3-Amino-1H-indazol-5-yl)pyridin-2-yl)(methyl)amino)propan-1-ol] | 1900 | > 10000 |
| Nc1n[nH]c2ccc(-c3ccnc(NCCN4CCOCC4)c3)cc12 [Example 30, 5-(2-((2-Morpholinoethyl)amino)pyridine-4-yl)-1H-indazol-3-amine] | 340 | 377 |

Second part, the molecule after the results:

| Ki [1] [nM] | Ki [2] [nM] | Structure (SMILES) |
| --- | --- | --- |
| 495 | > 10000 | Nc1n[nH]c2ccc(-c3ccnc(NCCN4CCCCC4)c3)cc12 [Example 31, 5-(2-((2-(Piperidin-1-yl)ethyl)amino)pyridine-4-yl)-1H-indazol-3-amine] |
| 340 | > 10000 | CNCCCNc1cc(-c2ccc3[nH]nc(N)c3c2)ccn1 [Example 32, N^1-(4-(3-Amino-1H-indazol-5-yl)pyridin-2-yl)-N^3-methylpropane-1,3-diamine] |
| 76 | 159 | Nc1n[nH]c2ccc(-c3ccnc(NC(=O)C4CC4)c3)cc12 [Example 33, N-[4-(3-Amino-1H-indazol-5-yl)pyridin-2-yl]cyclopropanecarboxamide] |
| 26 | 350 | Nc1n[nH]c2ccc(-c3ccnc(NC(=O)c4ccccc4)c3)cc12 [Example 34, N-(4-(3-Amino-1H-indazol-5-yl)pyridin-2-yl)benzamide] |
| 15 | 470 | CCOC(=O)Nc1cc(-c2ccc3[nH]nc(N)c3c2)ccn1 [Example 35, Ethyl (4-(3-amino-1H-indazol-5-yl)pyridin-2-yl)carbamate] |
| 20 | 838 | CCNC(=O)Nc1cc(-c2ccc3[nH]nc(N)c3c2)ccn1 [Example 36, 1-(4-(3-Amino-1H-indazol-5-yl)pyridine-2-yl)-3-ethylurea] |
| 70 | 4100 | CCCNC(=O)Nc1cc(-c2ccc3[nH]nc(N)c3c2)ccn1 [Example 37, 1-(4-(3-Amino-1H-indazol-5-yl)pyridin-2-yl)-3-propylurea] |
| 100 | 4200 | CC(C)CCNC(=O)Nc1cc(-c2ccc3[nH]nc(N)c3c2)ccn1 [Example 38, 1-(4-(3-Amino-1H-indazol-5-yl)pyridin-2-yl)-3-isopentylurea] |
| 114 | 970 | Nc1n[nH]c2ccc(-c3ccnc(NC(=O)NC4CCCC4)c3)cc12 [Example 39, 1-(4-(3-Amino-1H-indazol-5-yl)pyridin-2-yl)-3-cyclopentylurea] |
| 228 | > 10000 | Nc1n[nH]c2ccc(-c3ccnc(NC(=O)NC4CCCCC4)c3)cc12 [Example 40, 1-(4-(3-Amino-1H-indazol-5-yl)pyridin-2-yl)-3-cyclohexylurea] |
| 21 | 754 | Nc1n[nH]c2ccc(-c3ccnc(NC(=O)NCCO)c3)cc12 [Example 41, 1-(4-(3-Amino-1H-indazol-5-yl)pyridin-2-yl)-3-(2-hydroxyethyl)urea] |
| 114 | 670 | Nc1n[nH]c2ccc(-c3ccnc(NC(=O)NCCCO)c3)cc12 [Example 42, 1-(4-(3-Amino-1H-indazol-5-yl)pyridin-2-yl)-3-(3-hydroxypropyl)urea] |
| 76 | 1590 | COCCNC(=O)Nc1cc(-c2ccc3[nH]nc(N)c3c2)ccn1 [Example 43, 1-(4-(3-Amino-1H-indazol-5-yl)pyridin-2-yl)-3-(2-methoxyethyl)urea] |
| 418 | > 10000 | CN(CCO)C(=O)Nc1cc(-c2ccc3[nH]nc(N)c3c2)ccn1 [Example 44, 3-(4-(3-Amino-1H-indazol-5-yl)pyridin-2-yl)-1-(2-hydroxyethyl)-1-methylurea] |

— patent US20250304576A1 (Cancer Research Technology Limited, priority 2022, published 2025)
